Experimental data as given in patent US11111240B2, “Sultam compound and application method thereof” (Chia Tai Tianqing Pharmaceutical Group Co., Ltd., priority 2016, dated 2021).

target: IDH1 (R132H) (Homo sapiens (Human), UniProt O75874, R132H); experiment: Enzyme assay, IDH1m inhibition (NADPH decrease, diaphorase/resazurin); assay type: biochemical; details: 40 nM enzyme, 16 h pre-incubation at 23° C.
Text: Resazurin is a traditional redox dye, and after a redox reaction, it can be reduced from a blue resazurin without fluorescence to a pink fluorescent substance, resorufin, which can be measured and quantified with relative fluorescence unit (RFU) of fluorophotometer (Ex=530-570 nm, Em=590-620 nm). At present, resazurin is widely used for determining the viability of bacteria, cells, etc. and the enzyme activity detection of oxidoreductase. We detected the decrease of cofactor NADPH to determine the inhibitory activity of a compound against IDH1m and detected the generation of cofactor NADPH to determine the inhibitory activity of a compound against IDH WT. The compound was pre-incubated with IDH1m and NADPH, and then the reaction was initiated by adding α-KG and performed for certain time under a linear condition. Then, diaphorase (lipoamide dehydrogenase) and the corresponding substrate resazurin were added thereto for detection. Lipoamide dehydrogenase terminated the IDH1m reaction by decreasing the available cofactor NADPH, which oxidized NADPH to NADP, and reduced resazurin to high fluorescent resorufin. The amount of the remaining cofactor NADPH after a specific reaction time was quantified via an easily detectable fluorophore.
The specific operation was as follows: 2.5 μl of the compound diluted in a 3-fold gradient was added to a 384-well plate, followed by adding 5 μl of the reaction buffer (20 mM Tris-HCl, pH 7.5; 150 mM NaCl; 10 mM MgCl2; 0.4 mg/mL BSA (Bovine Serum Albumin) and 2 mM DTT (dithiothreitol)) containing 40 nM IDH1 (R132H/R132C) and 20 μM NADPH. Then, the above test mixture was incubated at 23° C. for 16 hours, and then 2.5 μl of the reaction buffer containing 4 mM α-KG was added to initiate the reaction. After they were incubated for 60 minutes at room temperature, 5 μl of the termination mixture (0.4 U/ml diaphorase and 20 μM resazurin) formulated with the reaction buffer was added to convert resazurin to resorufin, so as to measure the amount of the remaining NADPH. After incubating at 23° C. for 10 minutes, fluorescence values were determined through Flexstation 3 at Ex535/Em595. The enzyme activity of each compound was respectively determined at 12 concentrations, and the data were calculated using the software GraFit6.0 (Erithacus Software) to obtain the IC50 value of each compound.

Chain of IDH1 (R132H) (O75874 whole entry R132H): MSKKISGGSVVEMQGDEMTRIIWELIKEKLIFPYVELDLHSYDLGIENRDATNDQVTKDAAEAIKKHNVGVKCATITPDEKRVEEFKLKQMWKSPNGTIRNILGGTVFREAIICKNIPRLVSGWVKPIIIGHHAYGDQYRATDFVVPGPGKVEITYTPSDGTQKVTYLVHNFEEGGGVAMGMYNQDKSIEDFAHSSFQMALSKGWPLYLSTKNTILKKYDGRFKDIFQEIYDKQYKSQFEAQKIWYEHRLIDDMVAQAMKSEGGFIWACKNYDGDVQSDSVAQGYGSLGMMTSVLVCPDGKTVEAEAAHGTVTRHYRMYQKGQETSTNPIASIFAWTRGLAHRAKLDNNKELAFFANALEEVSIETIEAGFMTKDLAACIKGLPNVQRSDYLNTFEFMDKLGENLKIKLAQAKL

**Q.** For `N#Cc1ccnc(N2[C@H](C(=O)N(c3cncc(F)c3)[C@@H](C(=O)NC3CC(F)(F)C3)c3ccccc3Cl)CCS2(=O)=O)c1` [Example 1, (S)—N—((R)-1-(2-chlorophenyl)-2-((3,3-difluorocyclobutyl)amino)-2-oxoethyl)-2-(4-cyanopyridin-2-yl)-N-(5-fluoropyridin-3-yl)-isothiazolidine-3-carboxamide 1,1-dioxide], which IC50 is on record?
**A.** < 10000 nM

**Q.** For `N#Cc1ccnc(N2[C@H](C(=O)N(c3cc(F)cc(F)c3)[C@@H](C(=O)NC3CC(F)(F)C3)c3ccccc3Cl)CCS2(=O)=O)c1` [Example 3, (S)—N—((R)-1-(2-chlorophenyl)-2-((3,3-difluorocyclobutyl)amino)-2-oxoethyl)-2-(4-cyanopyridin-2-yl)-N-(3,5-difluorophenyl)-isothiazolidine-3-carboxamide 1,1-dioxide], which IC50 is on record?
**A.** < 500 nM

**Q.** For `N#Cc1ccnc(N2[C@H](C(=O)N(c3cc(F)cc(F)c3)[C@H](C(=O)NC3CC(F)(F)C3)c3ccccc3Cl)CCS2(=O)=O)c1` [Example 4, (S)—N—((S)-1-(2-chlorophenyl)-2-((3,3-difluorocyclobutyl)amino)-2-oxoethyl)-2-(4-cyanopyridin-2-yl)-N-(3,5-difluorophenyl)-isothiazolidine-3-carboxamide 1,1-dioxide], which IC50 is on record?
**A.** < 20 nM

**Q.** Which IC50 does the source give for `N#Cc1ccnc(N2[C@H](C(=O)N(c3cccc(C(F)(F)F)c3)[C@@H](C(=O)NC3CC(F)(F)C3)c3ccccc3Cl)CCS2(=O)=O)c1` [Example 5, (S)—N—((R)-1-(2-chlorophenyl)-2-((3,3-difluorocyclobutyl)amino)-2-oxoethyl)-2-(4-cyanopyridin-2-yl)-N-(3-trifluoromethylphenyl)-isothiazolidine-3-carboxamide 1,1-dioxide] here?
**A.** < 1000 nM

**Q.** `N#Cc1ccnc(N2[C@H](C(=O)N(c3cccc(C(F)(F)F)c3)[C@H](C(=O)NC3CC(F)(F)C3)c3ccccc3Cl)CCS2(=O)=O)c1` [Example 6, (S)—N—((S)-1-(2-chlorophenyl)-2-((3,3-difluorocyclobutyl)amino)-2-oxoethyl)-2-(4-cyanopyridin-2-yl)-N-(3-trifluoromethylphenyl)-isothiazolidine-3-carboxamide 1,1-dioxide] was tested. Which IC50 did it give?
**A.** < 20 nM

**Q.** `N#Cc1cc(F)cc(N(C(=O)[C@@H]2CCS(=O)(=O)N2c2cc(C#N)ccn2)[C@@H](C(=O)NC2CC(F)(F)C2)c2ccccc2Cl)c1` [Example 7, (S)—N—((R)-1-(2-chlorophenyl)-2-((3,3-difluorocyclobutyl)amino)-2-oxoethyl)-2-(4-cyanopyridin-2-yl)-N-(3-cyano-5-fluorophenyl)-isothiazolidine-3-carboxamide 1,1-dioxide] was tested. Which IC50 did it give?
**A.** < 500 nM

**Q.** With `N#Cc1cc(F)cc(N(C(=O)[C@@H]2CCS(=O)(=O)N2c2cc(C#N)ccn2)[C@H](C(=O)NC2CC(F)(F)C2)c2ccccc2Cl)c1` [Example 8, (S)—N—((S)-1-(2-chlorophenyl)-2-((3,3-difluorocyclobutyl)amino)-2-oxoethyl)-2-(4-cyanopyridin-2-yl)-N-(3-cyano-5-fluorophenyl)-isothiazolidine-3-carboxamide 1,1-dioxide] as the molecule, how does the IC50 read?
**A.** < 20 nM

**Q.** How did the IC50 turn out when `N#Cc1ccnc(N2[C@H](C(=O)N(c3ccc(F)c(F)c3)[C@@H](C(=O)NC3CC(F)(F)C3)c3ccccc3Cl)CCS2(=O)=O)c1` [Example 9, (S)—N—((R)-1-(2-chlorophenyl)-2-((3,3-difluorocyclobutyl)amino)-2-oxoethyl)-2-(4-cyanopyridin-2-yl)-N-(3,4-difluorophenyl)-isothiazolidine-3-carboxamide 1,1-dioxide] was run?
**A.** < 1000 nM

**Q.** For `N#Cc1ccnc(N2[C@H](C(=O)N(c3ccc(F)c(F)c3)[C@H](C(=O)NC3CC(F)(F)C3)c3ccccc3Cl)CCS2(=O)=O)c1` [Example 10, (S)—N—((S)-1-(2-chlorophenyl)-2-((3,3-difluorocyclobutyl)amino)-2-oxoethyl)-2-(4-cyanopyridin-2-yl)-N-(3,4-difluorophenyl)-isothiazolidine-3-carboxamide 1,1-dioxide], which IC50 is on record?
**A.** < 20 nM

**Q.** How did the IC50 turn out when `N#Cc1ccnc(N2[C@H](C(=O)N(c3cccc(F)c3)[C@@H](C(=O)NC3CC(F)(F)C3)c3ccccc3Cl)CCS2(=O)=O)c1` [Example 11, (S)—N—((R)-1-(2-chlorophenyl)-2-((3,3-difluorocyclobutyl)amino)-2-oxoethyl)-2-(4-cyanopyridin-2-yl)-N-(3-fluorophenyl)-isothiazolidine-3-carboxamide 1,1-dioxide] was run?
**A.** < 500 nM

**Q.** Which IC50 does the source give for `O=C(NC1CCCCC1)[C@@H](c1ccccc1Cl)N(C(=O)[C@@H]1CCS(=O)(=O)N1c1ncccn1)c1cccc(F)c1` [Example 13, (S)—N—((R)-1-(2-chlorophenyl)-2-(cyclohexylamino)-2-oxoethyl)-2-(pyrimidin-2-yl)-N-(3-fluorophenyl)-isothiazolidine-3-carboxamide 1,1-dioxide] here?
**A.** < 1000 nM

**Q.** How did the IC50 turn out when `O=C(NC1CCCCC1)[C@H](c1ccccc1Cl)N(C(=O)[C@@H]1CCS(=O)(=O)N1c1ncccn1)c1cccc(F)c1` [Example 14, (S)—N—((S)-1-(2-chlorophenyl)-2-(cyclohexylamino)-2-oxoethyl)-2-(pyrimidin-2-yl)-N-(3-fluorophenyl)-isothiazolidine-3-carboxamide 1,1-dioxide] was run?
**A.** < 20 nM

**Q.** For `N#Cc1ccnc(N2[C@H](C(=O)N(c3cccc(F)c3)[C@@H](C(=O)NC3CCCCC3)c3ccccc3Cl)CCS2(=O)=O)c1` [Example 15, (S)—N—((R)-1-(2-chlorophenyl)-2-(cyclohexylamino)-2-oxoethyl)-2-(4-cyanopyridin-2-yl)-N-(3-fluorophenyl)-isothiazolidine-3-carboxamide 1,1-dioxide], which IC50 is on record?
**A.** < 500 nM

**Q.** How did the IC50 turn out when `N#Cc1ccnc(N2[C@H](C(=O)N(c3cccc(F)c3)[C@H](C(=O)NC3CCCCC3)c3ccccc3Cl)CCS2(=O)=O)c1` [Example 16, (S)—N—((S)-1-(2-chlorophenyl)-2-(cyclohexylamino)-2-oxoethyl)-2-(4-cyanopyridin-2-yl)-N-(3-fluorophenyl)-isothiazolidine-3-carboxamide 1,1-dioxide] was run?
**A.** < 20 nM

**Q.** `O=C(NC1CCCCC1)[C@@H](c1ccccc1Cl)N(C(=O)[C@@H]1CCS(=O)(=O)N1c1cc(F)ccn1)c1cccc(F)c1` [Example 17, (S)—N—((R)-1-(2-chlorophenyl)-2-(cyclohexylamino)-2-oxoethyl)-2-(4-fluoropyridin-2-yl)-N-(3-fluorophenyl)-isothiazolidine-3-carboxamide 1,1-dioxide] was tested. Which IC50 did it give?
**A.** < 10000 nM

**Q.** For `O=C(NC1CCCCC1)[C@H](c1ccccc1Cl)N(C(=O)[C@@H]1CCS(=O)(=O)N1c1cc(F)ccn1)c1cccc(F)c1` [Example 18, (S)—N—((S)-1-(2-chlorophenyl)-2-(cyclohexylamino)-2-oxoethyl)-2-(4-fluoropyridin-2-yl)-N-(3-fluorophenyl)-isothiazolidine-3-carboxamide 1,1-dioxide], which IC50 is on record?
**A.** < 100 nM

**Q.** `C#Cc1ccnc(N2[C@H](C(=O)N(c3cccc(F)c3)C(C(=O)NC3CCCCC3)c3ccccc3Cl)CCS2(=O)=O)c1` (stereo partly drawn) [Example 19, (3S)—N-(1-(2-chlorophenyl)-2-(cyclohexylamino)-2-oxoethyl)-N-(3-fluorophenyl)-2-(4-ethynylpyridin-2-yl)isothiazolidine-3-carboxamide 1,1-dioxide] was tested. Which IC50 did it give?
**A.** < 1000 nM

**Q.** With `N#Cc1ccnc(NS(=O)(=O)c2cccc(N(C(=O)[C@@H]3CCS(=O)(=O)N3c3cc(C#N)ccn3)C(C(=O)NC3CCCCC3)c3ccccc3Cl)c2)c1` (stereo partly drawn) [Example 20, (3S)—N-(1-(2-chlorophenyl)-2-(cyclohexylamino)-2-oxoethyl)-2-(4-cyanopyridin-2-yl)-N-(3-(N-(4-cyanopyridin-2-yl)aminosulfonyl)phenyl)-isothiazolidine-3-carboxamide 1,1-dioxide] as the molecule, how does the IC50 read?
**A.** < 20 nM

**Q.** How did the IC50 turn out when `N#Cc1cccc(CN2[C@H](C(=O)N(c3cccc(F)c3)C(C(=O)NC3CCCCC3)c3ccccc3Cl)CCS2(=O)=O)c1` (stereo partly shown) [Example 21] was run?
**A.** < 10000 nM

**Q.** With `N#Cc1ccnc(N2[C@H](C(=O)N(c3cccc(F)c3)[C@@H](C(=O)NC3CCC(F)(F)CC3)c3ccccc3Cl)CCS2(=O)=O)c1` [Example 22] as the molecule, how does the IC50 read?
**A.** < 1000 nM

**Q.** For `N#Cc1ccnc(N2[C@H](C(=O)N(c3cccc(F)c3)[C@H](C(=O)NC3CCC(F)(F)CC3)c3ccccc3Cl)CCS2(=O)=O)c1` [Example 23, (S)—N—((S)-1-(2-chlorophenyl)-2-((4,4-difluorocyclohexyl)amino)-2-oxoethyl)-2-(4-cyanopyridin-2-yl)-N-(3-fluorophenyl)-isothiazolidine-3-carboxamide 1,1-dioxide], which IC50 is on record?
**A.** < 20 nM

**Q.** With `N#Cc1ccnc(N2[C@H](C(=O)N(c3cccc(F)c3)[C@H](C(=O)NC3CC(F)(F)C3)c3ccccc3Cl)CNS2(=O)=O)c1` [Example 24, (S)—N—((S)-1-(2-chlorophenyl)-2-((3,3-difluorocyclobutyl)amino)-2-oxoethyl)-2-(4-cyanopyridin-2-yl)-N-(3-fluorophenyl)-1,2,5-thiadiazolidine-3-carboxamide 1,1-dioxide] as the molecule, how does the IC50 read?
**A.** < 20 nM
